We go through 27 molecules from patent publication US10112937B2, “P2X7 modulators and methods of use” (Janssen Pharmaceutica NV, priority 2013, dated 2018).

In one test the target is human P2X7 (Homo sapiens (Human), UniProt Q99572). The experiment in a line: P2X7 antagonism in human PBMCs (IL-1β release after LPS + Bz-ATP, ELISA). It counts as cell-based. The note with it: 10 μM test compound, human PBMCs, LPS + Bz-ATP.
Sequence of human P2X7 (Q99572 whole entry): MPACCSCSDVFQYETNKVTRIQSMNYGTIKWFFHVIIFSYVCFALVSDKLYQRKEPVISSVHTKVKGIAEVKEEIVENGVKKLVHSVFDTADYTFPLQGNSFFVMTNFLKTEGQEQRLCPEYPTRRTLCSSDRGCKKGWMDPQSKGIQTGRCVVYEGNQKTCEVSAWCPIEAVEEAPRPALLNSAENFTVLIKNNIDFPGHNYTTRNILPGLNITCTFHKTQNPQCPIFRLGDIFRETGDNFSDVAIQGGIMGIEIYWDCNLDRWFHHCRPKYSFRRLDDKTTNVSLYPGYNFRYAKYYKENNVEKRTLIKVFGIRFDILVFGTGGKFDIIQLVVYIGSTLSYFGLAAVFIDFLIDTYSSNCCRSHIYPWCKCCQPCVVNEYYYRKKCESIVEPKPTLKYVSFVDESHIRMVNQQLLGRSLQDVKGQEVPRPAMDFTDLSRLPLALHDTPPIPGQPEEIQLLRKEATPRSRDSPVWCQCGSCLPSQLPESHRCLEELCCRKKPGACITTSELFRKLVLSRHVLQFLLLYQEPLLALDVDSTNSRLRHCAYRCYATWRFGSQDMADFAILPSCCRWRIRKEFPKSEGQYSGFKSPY
As for `CCn1ccc(-n2nnc3c2C[C@H](C)N(C(=O)c2ccnc(C(F)(F)F)c2F)C3)n1` [Example 408, (S)-(1-(1-ethyl-1H-pyrazol-3-yl)-6-methyl-6,7-dihydro-1H-[1,2,3]triazolo[4,5-c]pyridin-5(4H)-yl)(3-fluoro-2-(trifluoromethyl)pyridin-4-yl)methanone], the “PBMC 10 μM (% control)” value is reported as 53.6 % control.

The same test, now with this note: human PBMCs, test compound 1 μM.
As to `Cn1nc2c(c1-c1ccncc1)CCN(C(=O)c1cccc(Cl)c1Cl)C2` [Example 328, (2,3-dichlorophenyl)(2-methyl-3-(pyridin-4-yl)-4,5-dihydro-2H-pyrazolo[3,4-c]pyridin-6(7H)-yl)methanone], the “PBMC 1 μM (% control)” value was 88.0 % control.
For `Cn1nc2c(c1-c1ccc(F)cc1)CCN(C(=O)c1cccc(C(F)(F)F)c1Cl)C2` [Example 105, 6-{[2-Chloro-3-(trifluoromethyl)phenyl]carbonyl}-3-(4-fluorophenyl)-2-methyl-4,5,6,7-tetrahydro-2H-pyrazolo[3,4-c]pyridine], the “PBMC 1 μM (% control)” value is 51.0 % control.

Staying with this test, now noted: human PBMCs, test compound 10 μM.
Take `C[C@@H]1c2nnn(-c3ccc(F)cc3)c2C[C@H](C)N1C(=O)c1cccc(C(F)(F)F)c1Cl` [Example 287, (2-chloro-3-(trifluoromethyl)phenyl)((4R,6S)-1-(4-fluorophenyl)-4,6-dimethyl-6,7-dihydro-1H-[1,2,3]triazolo[4,5-c]pyridin-5(4H)-yl)methanone]: the “PBMC 10 μM (% control)” value is reported as −4.1 % control.
The same measure, in the same setting: then `C[C@@H]1Cc2c(nnn2-c2ccn[nH]2)[C@@H](C)N1C(=O)c1cccc(C(F)(F)F)c1Cl` [Example 296, (2-chloro-3-(trifluoromethyl)phenyl)((4R,6R)-4,6-dimethyl-1-(1H-pyrazol-5-yl)-6,7-dihydro-1H-[1,2,3]triazolo[4,5-c]pyridin-5(4H)-yl)methanone], with 3.6 % control; and `O=C(c1cccc(C(F)(F)F)c1Cl)N1CCc2c(nc(C(F)(F)F)n2-c2ccccc2)C1` [Example 38, (2-Chloro-3-(trifluoromethyl)phenyl)(1-phenyl-2-(trifluoromethyl)-6,7-dihydro-1H-imidazo[4,5-c]pyridin-5(4H)-yl)methanone], with −0.3 % control; and `Cc1ccc(-n2nnc3c2CCN(C(=O)c2cccc(Cl)c2Cl)C3C)nc1` (centres unmarked) [Example 336, (2,3-dichlorophenyl)(4-methyl-1-(5-methylpyridin-2-yl)-6,7-dihydro-1H-[1,2,3]triazolo[4,5-c]pyridin-5(4H)-yl)methanone], with −0.5 % control.
The same measure, in the same setting: then `CC1CN(C(=O)c2cccc(C(F)(F)F)c2Cl)C(C)c2nnn(-c3ccccc3)c21` (centres unmarked) [Example 241, (2-Chloro-3-(trifluoromethyl)phenyl)(4,7-dimethyl-1-phenyl-6,7-dihydro-1H-[1,2,3]triazolo[4,5-c]pyridin-5(4H)-yl)methanone], with 6.5 % control; and `O=C(c1cccc(C(F)(F)F)c1Cl)N1CCc2c(nnn2-c2ncccn2)C1` [Example 65, 5-{[2-Chloro-3-(trifluoromethyl)phenyl]carbonyl}-1-pyrimidin-2-yl-4,5,6,7-tetrahydro-1H-[1,2,3]triazolo[4,5-c]pyridine], with 5.8 % control; and `CC1c2ncn(-c3ccc(F)cn3)c2CCN1C(=O)c1cccc(C(F)(F)F)c1Cl` (centres unmarked) [Example 11, (2-Chloro-3-(trifluoromethyl)phenyl)(1-(5-fluoropyridin-2-yl)-4-methyl-6,7-dihydro-1H-imidazo[4,5-c]pyridin-5(4H)-yl)methanone], with 3.7 % control.
Same read-out and setting: then `O=C(c1ccc(Cl)cc1F)N1CCc2c(nnn2-c2cnccn2)C1` [Example 272, (4-chloro-2-fluorophenyl)(1-(pyrazin-2-yl)-6,7-dihydro-1H-[1,2,3]triazolo[4,5-c]pyridin-5(4H)-yl)methanone], with −7.6 % control.
Turning to `Cc1ccnc(-n2nnc3c2CCN(C(=O)c2ccnc(C(F)(F)F)c2Cl)[C@H]3C)c1` (single isomer, unassigned) [Example 360, (S*)-(3-chloro-2-(trifluoromethyl)pyridin-4-yl)(4-methyl-1-(4-methylpyridin-2-yl)-6,7-dihydro-1H-[1,2,3]triazolo[4,5-c]pyridin-5(4H)-yl)methanone], the “PBMC 10 μM (% control)” value is reported as −7.1 % control.
On the same count and under the same terms, then `Cc1cc(-n2nnc3c2CCN(C(=O)c2cc(C(F)(F)F)ccc2Cl)[C@H]3C)ncc1F` (single isomer, unassigned) [Example 354, (S*)-(2-chloro-5-(trifluoromethyl)phenyl)(1-(5-fluoro-4-methylpyridin-2-yl)-4-methyl-6,7-dihydro-1H-[1,2,3]triazolo[4,5-c]pyridin-5(4H)-yl)methanone], with 83.4 % control; and `Cc1cc(C)nc(-n2nnc3c2CCN(C(=O)c2cccc(C(F)(F)F)c2Cl)C3C)n1` (centres unmarked) [Example 253, (2-Chloro-3-(trifluoromethyl)phenyl)(1-(4,6-dimethylpyrimidin-2-yl)-4-methyl-6,7-dihydro-1H-[1,2,3]triazolo[4,5-c]pyridin-5(4H)-yl)methanone], with −2.6 % control.
In the case of `CCc1ccnc(-n2nnc3c2CCN(C(=O)c2cccc(C(F)(F)F)c2Cl)[C@@H]3C)n1` (single isomer, unassigned) [Example 294, (R*)-(2-chloro-3-(trifluoromethyl)phenyl)(1-(4-ethylpyrimidin-2-yl)-4-methyl-6,7-dihydro-1H-[1,2,3]triazolo[4,5-c]pyridin-5(4H)-yl)methanone], the “PBMC 10 μM (% control)” value was −8.1 % control.
Still for that read-out and setting: the figure for `O=C(c1ccc(Cl)cc1Cl)N1CCc2c(nnn2-c2ncccn2)C1` [Example 257, (2,4-dichlorophenyl)(1-(pyrimidin-2-yl)-6,7-dihydro-1H-[1,2,3]triazolo[4,5-c]pyridin-5(4H)-yl)methanone] is 7.1 % control; for `CC1c2nnn(-c3ncco3)c2CCN1C(=O)c1cccc(C(F)(F)F)c1Cl` (centres unmarked) [Example 250, (2-Chloro-3-(trifluoromethyl)phenyl)(4-methyl-1-(oxazol-2-yl)-6,7-dihydro-1H-[1,2,3]triazolo[4,5-c]pyridin-5(4H)-yl)methanone] it is −1.3 % control.
Still for that read-out and setting: the figure for `CC1c2ncn(-c3ccc(F)cc3)c2CCN1C(=O)c1cccc(C(F)(F)F)c1F` (centres unmarked) [Example 20, (2-Fluoro-3-(trifluoromethyl)phenyl)(1-(4-fluorophenyl)-4-methyl-6,7-dihydro-1H-imidazo[4,5-c]pyridin-5(4H)-yl)methanone] is 8.6 % control; for `O=C(c1cccc(C(F)(F)F)c1Cl)N1CCc2c(-c3cccnc3)n[nH]c2C1` [Example 96, 6-{[2-Chloro-3-(trifluoromethyl)phenyl]carbonyl}-3-pyridin-3-yl-4,5,6,7-tetrahydro-2H-pyrazolo[3,4-c]pyridine] it is 3.6 % control; for `Cc1cccnc1-n1nnc2c1CCN(C(=O)c1cccc(C(F)(F)F)c1Cl)[C@@H]2C` (single isomer, unassigned) [Example 291, (R*)-(2-chloro-3-(trifluoromethyl)phenyl)(4-methyl-1-(3-methylpyridin-2-yl)-6,7-dihydro-1H-[1,2,3]triazolo[4,5-c]pyridin-5(4H)-yl)methanone] it is −7.1 % control.
Still for that read-out and setting: then `C[C@@H]1c2nnn(-c3cc(F)ccn3)c2CCN1C(=O)c1cccc(C(F)(F)F)c1Cl` (single isomer, unassigned) [Example 148, (R*)-(2-Chloro-3-(trifluoromethyl)phenyl)(1-(4-fluoropyridin-2-yl)-4-methyl-6,7-dihydro-1H-[1,2,3]triazolo[4,5-c]pyridin-5(4H)-yl)methanone], with −9.6 % control; and `C[C@H]1Cc2c(nnn2-c2ccccc2)CN1C(=O)c1cccc(C(F)(F)F)c1Cl` [Example 288, (S)-(2-chloro-3-(trifluoromethyl)phenyl)(6-methyl-1-phenyl-6,7-dihydro-1H-[1,2,3]triazolo[4,5-c]pyridin-5(4H)-yl)methanone], with 4.4 % control; and `COc1cccnc1-n1nnc2c1CCN(C(=O)c1cccc(C(F)(F)F)c1Cl)C2C` (centres unmarked) [Example 260, (2-Chloro-3-(trifluoromethyl)phenyl)(1-(3-methoxypyridin-2-yl)-4-methyl-6,7-dihydro-1H-[1,2,3]triazolo[4,5-c]pyridin-5(4H)-yl)methanone], with 1.4 % control.
For `Cc1ccnc(-n2nnc3c2CCN(C(=O)c2cccc(Cl)c2Cl)C3C)c1` (centres unmarked) [Example 237, (2,3-dichlorophenyl)(4-methyl-1-(4-methylpyridin-2-yl)-6,7-dihydro-1H-[1,2,3]triazolo[4,5-c]pyridin-5(4H)-yl)methanone], the “PBMC 10 μM (% control)” value was −5.1 % control.
For the molecule `Cc1cc(-n2nnc3c2CCN(C(=O)c2cccc(C(F)(F)F)c2Cl)[C@H]3C)ncc1F` (single isomer, unassigned) [Example 383, (S*)-(2-chloro-3-(trifluoromethyl)phenyl)(1-(5-fluoro-4-methylpyridin-2-yl)-4-methyl-6,7-dihydro-1H-[1,2,3]triazolo[4,5-c]pyridin-5(4H)-yl)methanone], the “PBMC 10 μM (% control)” value is reported as 87.3 % control.
Still for that read-out and setting: the figure for `C[C@H]1Cc2c(nnn2-c2ncc(F)cn2)CN1C(=O)c1ccnc(C(F)(F)F)c1F` [Example 228, (S)-(3-fluoro-2-(trifluoromethyl)pyridin-4-yl)(1-(5-fluoropyrimidin-2-yl)-6-methyl-6,7-dihydro-1H-[1,2,3]triazolo[4,5-c]pyridin-5(4H)-yl)methanone] is −1.1 % control; for `C[C@H]1Cc2c(nnn2-c2ncc(F)cn2)CN1C(=O)c1cc(C(F)(F)F)ccc1F` (single isomer, unassigned) [Example 232, (S*)-(2-fluoro-5-(trifluoromethyl)phenyl)(1-(5-fluoropyrimidin-2-yl)-6-methyl-6,7-dihydro-1H-[1,2,3]triazolo[4,5-c]pyridin-5(4H)-yl)methanone] it is 7.5 % control.

The test is the same for the next values; noted with them: test compound 10 μM, LPS 30 ng/ml + 0.5 mM Bz-ATP.
As to `C[C@@H]1c2nnn(-c3ccc(F)cc3)c2C[C@H](C)N1C(=O)c1cccc(C(F)(F)F)c1Cl` [Example 287, (2-chloro-3-(trifluoromethyl)phenyl)((4R,6S)-1-(4-fluorophenyl)-4,6-dimethyl-6,7-dihydro-1H-[1,2,3]triazolo[4,5-c]pyridin-5(4H)-yl)methanone], the “PBMC 10 μM (% control)” value is listed as −4.1 % control.
Consider `Cc1cc(C)nc(-n2nnc3c2CCN(C(=O)c2cccc(C(F)(F)F)c2Cl)C3C)n1` (centres unmarked) [Example 253, (2-Chloro-3-(trifluoromethyl)phenyl)(1-(4,6-dimethylpyrimidin-2-yl)-4-methyl-6,7-dihydro-1H-[1,2,3]triazolo[4,5-c]pyridin-5(4H)-yl)methanone], for which the “PBMC 10 μM (% control)” value is given as −2.6 % control.
